# Measured values reported in US20030147936A1, “Prostatic hormonal implants treatment of prostate cancer” (priority 2002, published 2003).
# Like-named read-outs stand apart in the source and are kept apart here.
# Tests used:
# [1] = system: prostate with cancer, prostatic volume greater than 50 cc; settings: before interstitial radioactive seed implant; cited from earlier work
# estrogen antiserum = settings: cited from earlier work
# estrogen receptor sites = estrogen receptor sites (Homo sapiens, UniProt P03372); settings: cited from earlier work
# rat breast tumor = assay: Implantation of iodoestradiol adsorbed sponges to rat breast tumor; type: in vivo; settings: sponges implanted to rat breast tumor; unpublished data
# Text: In U.S. Pat. No. 4,321,208 (31; Sahadevan V: Preparation of directly iodinated steroid hormones and related compounds, U.S. Pat. No. 4,321,208; 1982) this inventor has described the methods for preparation of iodinated steroid hormones including the estradiol as early as in 1976, the time of filing the patent application.
# [2] = system: recurrent prostate cancer; assay: Serum acid phosphatase of the same patient on oral DES; type: in vivo, human
# [3] = system: recurrent poor prognostic prostate cancer
# Method: Since this hormonal treatment was rendered at recurrence after radiation therapy, it is termed as secondary hormonal treatment.
# Later it was reduced to 1 mg per day.
# [4] = system: hormone-refractory prostate cancer; settings: in vivo; cited from earlier work
# [5] = DES 1 mg three times per day by mouth, four years of follow-ups
# [6] = June 10, 1993, pretreatment value, before DES was started, table dose 3 mg 3× daily
# [7] = September 15, 1993, DES 3 mg 3× daily (table)
# Chain of estrogen receptor sites (P03372 whole entry): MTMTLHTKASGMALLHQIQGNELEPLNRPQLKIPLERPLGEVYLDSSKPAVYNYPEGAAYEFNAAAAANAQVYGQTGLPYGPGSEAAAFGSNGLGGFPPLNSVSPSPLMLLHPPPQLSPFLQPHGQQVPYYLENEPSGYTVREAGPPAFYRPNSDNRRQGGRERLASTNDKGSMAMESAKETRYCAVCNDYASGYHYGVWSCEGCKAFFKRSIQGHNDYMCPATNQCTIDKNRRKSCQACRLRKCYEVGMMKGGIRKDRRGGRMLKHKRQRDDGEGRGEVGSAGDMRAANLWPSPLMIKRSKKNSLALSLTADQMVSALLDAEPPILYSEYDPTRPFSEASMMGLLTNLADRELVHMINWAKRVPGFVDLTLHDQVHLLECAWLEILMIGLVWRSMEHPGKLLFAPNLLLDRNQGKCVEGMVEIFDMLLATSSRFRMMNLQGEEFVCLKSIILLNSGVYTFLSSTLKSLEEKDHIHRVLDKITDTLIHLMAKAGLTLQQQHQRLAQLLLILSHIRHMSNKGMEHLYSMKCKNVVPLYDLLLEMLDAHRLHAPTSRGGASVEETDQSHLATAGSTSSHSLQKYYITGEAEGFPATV
compound,measurement,setting,value
LHRH,reduction of the initial prostatic volume,[1],about 40 per cent
iodoestradiol,binding to estrogen antiserum,estrogen antiserum,binds
same,binding to estrogen receptor sites,estrogen receptor sites,binds
same,tumor regression,rat breast tumor,excellent tumor regression
"CC/C(=C(/CC)c1ccc(O)cc1)c1ccc(O)cc1 [DES, diethylstilbestrol]",acid phosphatase nadir value during treatment with DES,[2]; [5],0.3 international unit
same,Acid Phosphatase,[2]; [6],48.0 iu
same,Acid Phosphatase,[2]; [7],0.3 iu
same,decrease of serum acid phosphatase (FIG. 3),"[2]; from pretreatment 48 international units per ml, rapidly",normal level
same,serum acid phosphatase level,"[2]; three months after DES 1 mg three times a day, pretreatment 48.0",< 0.3 international units per ml
same,PSA reduced to,"[3]; 1 mg DES three times a day, patients with serum PSA exceeding over 300 ng per ml",less than 1 ng per ml
same,PSA,"[3]; August 4, 1996, DES 1 mg daily",>0.1 ng/mL
same,PSA,"[3]; August 5, 1997, DES 1 mg daily",>0.1 ng/mL
same,serum PSA nadir value during treatment with DES,[3]; [5],0.1 ng per ml
same,PSA reduced to,"[3]; DES oral dose of 1 mg daily, 363 ng per ml before treatment",0.1 ng per ml
same,PSA,[3]; [6],363.0 ng/mL
same,PSA,"[3]; June 13, 1994, DES 3 mg 3× daily (table)",>0.1 ng/mL
same,PSA,"[3]; May 3, 1995, DES 3 mg 3× daily (table)",>0.1 ng/mL
same,PSA,"[3]; September 7, 1993, DES 3 mg 3× daily (table)",38.4 ng/mL
same,PSA,[3]; [7],4.5 ng/mL
same,PSA,"[3]; September 26, 1994, DES 3 mg 3× daily (table)",>0.1 ng/mL
same,"PSA value, maintained at low nadir","[3]; continued DES alone, 1 mg three times a day, later 1 mg per day, maintained for four years, pretreatment 363 ng per ml",less than 0.1 ng
same,decrease of serum PSA (FIG. 1),"[3]; from pretreatment 363 ng per ml, rapidly",normal level
same,effectiveness in hormone-refractory prostate cancer,[4],effective
